# Earlier results, collected in US20140037713A1, “TRANSDERMAL COMPOSITIONS FOR ANTI-CHOLINERGIC AGENTS” (ANTARES PHARMA IPL, AG, priority 2012, published 2014).
# Conditions: Ref. 2
smiles,measurement,value
"CCN(CC)CC#CCOC(=O)C(O)(c1ccccc1)C1CCCCC1 (racemic) [Oxybutynin, d,l (racemic) 4-diethylamino-2-butynyl phenylcyclohexylglycolate]",Dissociation const. (pKa),8.04
